Data taken from patent US20220008372A1, “BACLOFEN FOR USE IN THE TOPICAL TREATMENT OF LOCALIZED MUSCULOSKELETAL PAIN” (ASSISTANCE PUBLIQUE - HOPITAUX DE PARIS, priority 2018, published 2022).

System: patients with localized musculoskeletal pain
Test: Example III: case reports of 3 patients applying topical baclofen
Format: in vivo, human
Conditions: human, in vivo

Structure (SMILES) | efficiency of earlier pain treatment
COc1c(O[C@@H]2O[C@H](CO)[C@@H](O)[C@H](O)[C@H]2O)cc2c(c1OC)-c1ccc(SC)c(=O)cc1[C@@H](NC(C)=O)CC2 [Thiocolchicoside] | poor efficiency
NCC(CC(=O)O)c1ccc(Cl)cc1 (stereo not drawn) [baclofen per os, β-(4-chlorophenyl)-γ-aminobutyric acid] | poor efficiency

Same assay, conditions: patient, Facioscapulohumeral muscular dystrophy, before topical baclofen

Structure (SMILES) | efficiency of earlier pain treatment
C=CC1CN2CCC1CC2C(O)c1ccnc2ccc(OC)cc12.O=C(O)c1ccccc1 (stereo not drawn) [Quinine benzoate] | poor efficiency
CN(C)CCC=C1c2ccccc2CCc2ccccc21 [amitriptyline] | poor efficiency

System: patients with localized musculoskeletal pain
Test: Example 1: topical Baclofen cream in 19 patients, pain intensity on Visual Analogue Scale
Format: in vivo, human
Conditions: patient, facioscapulohumeral muscular dystrophy, before applying topical baclofen
Procedure: The cream was prepared with Baclofen powder mixed with a Pentravan® Base (Fagron) at a final concentration of 10% w/w.
The intensity of pain was rated using a Visual Analogue Scale (VAS) from 1 to 10.

Structure (SMILES) | efficiency of earlier pain treatment
CN(C)CCC=C1c2ccccc2CCc2ccccc21 [amitriptyline] | poor efficiency
NCC1(CC(=O)O)CCCCC1 [gabapentine] | poor efficiency
CC(C(=O)O)c1cccc(C(=O)c2ccccc2)c1 (stereo not drawn) [ketoprofene] | poor efficiency
CC(=O)Nc1ccc(O)cc1 [paracetamol] | poor efficiency
COc1cccc(C2(O)CCCCC2CN(C)C)c1 (stereo not drawn) [tramadol] | poor efficiency
